From patent US6776971B1, “Visible light pH change for activating polymers and other pH dependent reactants” (The United States of America as represented by the …, priority 1998, dated 2004)
Values belong to the compound of their own block, whether it stands above or below them.

Tests used:
[1] = Excitation wavelength and light absorbance; assay type: physicochemical; details: for Log (eps) / epsilon: 413.1 nm
Source text: In Table 1, characteristics of the carbon acids are described. […] In this table, “obs” means “observed” and “c” means “calculated”. Of these, the PAC, anthracene, fits well with certain well established polymers. Referring to FIG. 4, the protonated form of this molecule is confirmed. […] The peak at 424 nm is the only peak within the visible region of the spectrum which decreases with time, and is the signature of anthracene's protonated form. It is this peak that is used to activate the anthracene polymeric actuator with visible light.

[2] = cited from earlier work
[3] = Acidity constants (pK) in ground, first excited singlet and triplet states; assay type: physicochemical; details: for pK (S0): ground state
Source text: The term pK is a shorthand indicating the strength of an acid (pKa) and is defined as the −log10 K in which K is the characteristic equilibrium constant K, represented by:
where [H^+] is the hydrogen ion concentration and [B] is the concentration of the conjugate base. When the amount of one of these constituents is varied, the others will adjust to keep K constant.
(§1) In Table 1, characteristics of the carbon acids are described. […] In this table, “obs” means “observed” and “c” means “calculated”.
By utilizing visible light, the protonated form BH^+ of anthracene is disassociated into its base (B) and hydrogen ion (H^+) constituents to prompt a pH change from […]. […] The calculation in Table 2 is based on a pK(S0) value for anthracene found in Mackor. E. L., Hofstra, A., and Van Der Waals, J. H., 1958, in an article entitled “The Basicity of Aromatic Hydrocarbons”, Trans. Faraday Soc., vol. 54, 66.

[4] = Excited-state / phosphorescence lifetimes of candidate jump molecules; assay type: physicochemical; details: for τp (excited-state lifetime, p for phosphorescence): carbon acids, obs = observed; for Lifetimes (mS): triplet, prolonged excited state
Source text: During the course of scientific research, the inventor constructed kinetic equations for the 3-level system of FIG. 1. Referring again to FIG. 1, an ideal “jump molecule” will be excited from ground state energy level (S0) to first excited singlet state energy level (S1), and return to the ground state via triplet state energy level (T1). The radiationless transition and radiative decay via phosphorescence will function as a “sink” for the molecules and because of their combined long lifetime, a prolonged molecule excited state will exist. The pH change produced by this excitation will last for the life of this excited state.
For example, the phenones are considered undesirable because the lifetimes of the protonated and non-protonated forms are very different, providing a rapid excited state deactivation channel. An example of this is benzophenone, having an unprotonated lifetime of 100 milliseconds and a protonated lifetime of 62 nanoseconds.
as §1

[5] = pK(S0), value from Mackor et al 1958; cited from earlier work

Log (eps) [1]: 4.38 | epsilon [1]: 23988 | absorbance peak within the visible region ([1]; zero-time spectrum, FIG. 4): 424 nm
Compound: protonated anthracene [BH+]

Compound: O=S(=O)(O)c1ccc2cc(O)ccc2c1 [2-naphthol-6-sulfonate]
excited-state pKa value ([2]; S1 state, UV laser, from measured rate constants): 1.9 | ground-state pKa value [2]: 9.1 | change in pKa ([2]; ground vs excited state): 7 unit

pK (S0) [3]: 23.04 | τp (excited-state lifetime, p for phosphorescence) [4]: 0.35 ms | λ00 (excitation wavelength necessary to initiate a pH change) [1]: 300 nm
Compound: c1ccc2c(c1)Cc1ccccc1-2 [fluorene]

pK (S0) [3]: 18.6 | τp (excited-state lifetime, p for phosphorescence) [4]: obs | λ00 (excitation wavelength necessary to initiate a pH change) [1]: 305 nm
Compound: c1ccc(C2c3ccccc3-c3ccccc32)cc1 [9-phenylflourene]

Compound: O=C(c1ccccc1)c1ccccc1 [benzophenone]
protonated lifetime [4]: 62 nanoseconds | unprotonated lifetime [4]: 100 milliseconds

pK (S0) [3]: 11.4 | τp (excited-state lifetime, p for phosphorescence) [4]: obs | λ00 (excitation wavelength necessary to initiate a pH change) [1]: 300 nm
Compound: N#CC1c2ccccc2-c2ccccc21 [9-cyanflourene]

pK's Singlet [3]: 13.6 | pK's Triplet ([3]; pK(T1)): 10.3 | Lifetimes nS ([4]; singlet excited state): 10.0 nS | Lifetimes (mS) [4]: (10.0) mS | Lifetimes (mS) ([4]; listed as anthracene): 10 mS | Log (eps) [1]: 0.04 | epsilon [1]: 1
Compound: c1ccc2cc3ccccc3cc2c1 [Anthracene, anthracene]
pK's Ground [5]: 3.8
